In data set [1] the target is T1, Adenosine receptor A2a (Homo sapiens, UniProt P29274). As to the kind of experiment: Antagonist activity at human adenosine A2A receptor.
The target in data set [2] is T1, Adenosine receptor A2a. Kind of data set: Displacement of radioligand from human adenosine A2A receptor at 1000 nM relative to control.
Data set [3] is described as follows: Aqueous solubility of the compound. In kind it is physicochemical. Particulars: buffer.
The target of another data set is T2, Cytochrome P450 1A2 (Homo sapiens, UniProt P05177).
T2 sequence (P05177 whole entry): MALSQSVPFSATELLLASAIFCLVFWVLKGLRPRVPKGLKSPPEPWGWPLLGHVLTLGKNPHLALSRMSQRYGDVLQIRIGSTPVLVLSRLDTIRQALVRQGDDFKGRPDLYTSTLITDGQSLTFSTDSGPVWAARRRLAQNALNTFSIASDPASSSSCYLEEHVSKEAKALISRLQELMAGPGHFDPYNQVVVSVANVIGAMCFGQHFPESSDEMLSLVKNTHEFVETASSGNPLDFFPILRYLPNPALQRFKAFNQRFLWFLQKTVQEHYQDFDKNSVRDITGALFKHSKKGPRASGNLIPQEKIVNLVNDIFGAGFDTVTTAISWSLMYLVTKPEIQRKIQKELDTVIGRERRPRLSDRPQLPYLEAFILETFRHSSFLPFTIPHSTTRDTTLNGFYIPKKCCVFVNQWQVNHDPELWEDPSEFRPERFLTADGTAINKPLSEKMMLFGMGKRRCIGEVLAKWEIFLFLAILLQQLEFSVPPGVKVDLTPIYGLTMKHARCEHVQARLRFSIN
As to the kind of experiment: Inhibition of CYP1A2 (unknown origin). Type of data set: ADME.

Another data set deals with Cytochrome P450 2C9 (Homo sapiens, UniProt P11712). Kind of data set: Inhibition of CYP2C9 (unknown origin). Type of data set: ADME.
A further data set deals with Cytochrome P450 3A4 (Homo sapiens, UniProt P08684). Kind of data set: Inhibition of CYP3A4 (unknown origin). Type of data set: ADME.
The target in a further data set is Cytochrome P450 2C19 (Homo sapiens, UniProt P33261). Kind of data set: Inhibition of CYP2C19 (unknown origin). Type of data set: ADME.
In the next data set the target is Cytochrome P450 2D6 (Homo sapiens, UniProt P10635). Kind of data set: Inhibition of CYP2D6 (unknown origin). Type of data set: ADME.
The nature of data set [4]: Intrinsic clearance in human liver microsomes. Type of data set: ADME. Particulars: read-out: CLH (converted). On the technique in general: Liver microsomes are vesicles of endoplasmic reticulum, rich in cytochrome P450 enzymes.
A short description of data set [5]: Aqueous solubility of the compound at pH 7.4. Type of data set: physicochemical. To be noted: buffer.

Each structure is given as a SMILES string. In brackets after ≈: the same amount, converted by molar mass.

The Ki is the equilibrium dissociation constant of an inhibitor or competing ligand from its target. Low readings indicate tighter binding, high ones weaker binding. For orientation: inhibition means the relative decrease from the control value, in per cent. What is called solubility is the dissolved amount per volume that the medium holds. A word on the IC50: it is the concentration needed to halve the response being measured. A low value points to greater potency.

T1 sequence (P29274 whole entry): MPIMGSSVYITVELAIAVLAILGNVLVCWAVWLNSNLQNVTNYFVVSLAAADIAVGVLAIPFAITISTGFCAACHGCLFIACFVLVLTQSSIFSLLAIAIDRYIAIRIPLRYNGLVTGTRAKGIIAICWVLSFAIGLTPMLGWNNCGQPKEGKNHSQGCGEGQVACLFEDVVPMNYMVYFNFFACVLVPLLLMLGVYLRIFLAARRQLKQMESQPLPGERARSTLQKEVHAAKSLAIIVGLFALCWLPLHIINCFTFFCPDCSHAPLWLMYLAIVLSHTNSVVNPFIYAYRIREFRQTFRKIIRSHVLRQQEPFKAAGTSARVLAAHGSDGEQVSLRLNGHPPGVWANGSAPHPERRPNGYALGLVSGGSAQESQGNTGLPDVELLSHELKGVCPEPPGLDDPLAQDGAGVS
Cytochrome P450 3A4, sequence (P08684 whole entry): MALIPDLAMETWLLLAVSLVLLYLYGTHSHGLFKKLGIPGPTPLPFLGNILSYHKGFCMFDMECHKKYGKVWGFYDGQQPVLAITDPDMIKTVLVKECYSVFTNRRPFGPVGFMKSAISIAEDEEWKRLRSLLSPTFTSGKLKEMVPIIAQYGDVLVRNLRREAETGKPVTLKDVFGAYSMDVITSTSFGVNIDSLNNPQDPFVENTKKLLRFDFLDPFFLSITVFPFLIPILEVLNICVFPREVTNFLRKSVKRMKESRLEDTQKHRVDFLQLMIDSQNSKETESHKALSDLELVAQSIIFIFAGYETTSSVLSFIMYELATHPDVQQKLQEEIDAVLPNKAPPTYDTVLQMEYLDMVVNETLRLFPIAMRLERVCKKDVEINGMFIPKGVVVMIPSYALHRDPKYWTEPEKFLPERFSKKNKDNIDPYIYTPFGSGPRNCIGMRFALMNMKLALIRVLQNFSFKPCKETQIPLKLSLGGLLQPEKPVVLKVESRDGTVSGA
Cytochrome P450 2C19, sequence (P33261 whole entry): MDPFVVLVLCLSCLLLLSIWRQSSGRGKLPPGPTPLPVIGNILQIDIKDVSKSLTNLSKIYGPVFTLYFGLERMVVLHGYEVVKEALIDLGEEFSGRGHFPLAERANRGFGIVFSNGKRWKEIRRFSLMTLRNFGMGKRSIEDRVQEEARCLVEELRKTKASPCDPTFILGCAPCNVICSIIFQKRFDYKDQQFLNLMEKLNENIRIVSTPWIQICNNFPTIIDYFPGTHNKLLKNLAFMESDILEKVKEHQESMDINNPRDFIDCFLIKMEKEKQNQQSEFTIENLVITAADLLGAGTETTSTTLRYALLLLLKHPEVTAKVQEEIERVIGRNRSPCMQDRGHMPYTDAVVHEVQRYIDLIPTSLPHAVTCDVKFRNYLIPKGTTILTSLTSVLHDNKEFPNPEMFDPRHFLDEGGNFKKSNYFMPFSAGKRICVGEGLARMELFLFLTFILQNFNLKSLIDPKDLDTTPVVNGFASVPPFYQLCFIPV
Cytochrome P450 2C9, sequence (P11712 whole entry): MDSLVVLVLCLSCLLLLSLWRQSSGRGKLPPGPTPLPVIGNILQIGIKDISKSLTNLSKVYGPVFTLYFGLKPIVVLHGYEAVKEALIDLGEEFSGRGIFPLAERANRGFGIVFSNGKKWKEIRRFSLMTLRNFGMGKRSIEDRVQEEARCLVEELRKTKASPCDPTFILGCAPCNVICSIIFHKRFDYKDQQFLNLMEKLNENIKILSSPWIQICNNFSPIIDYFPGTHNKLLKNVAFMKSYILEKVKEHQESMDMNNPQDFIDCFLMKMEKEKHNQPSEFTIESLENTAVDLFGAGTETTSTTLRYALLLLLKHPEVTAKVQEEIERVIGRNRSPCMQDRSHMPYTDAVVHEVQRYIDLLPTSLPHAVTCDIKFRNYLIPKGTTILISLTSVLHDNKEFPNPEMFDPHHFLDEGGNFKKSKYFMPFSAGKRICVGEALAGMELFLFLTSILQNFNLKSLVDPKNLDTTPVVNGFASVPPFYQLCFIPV
Cytochrome P450 2D6, sequence (P10635 whole entry): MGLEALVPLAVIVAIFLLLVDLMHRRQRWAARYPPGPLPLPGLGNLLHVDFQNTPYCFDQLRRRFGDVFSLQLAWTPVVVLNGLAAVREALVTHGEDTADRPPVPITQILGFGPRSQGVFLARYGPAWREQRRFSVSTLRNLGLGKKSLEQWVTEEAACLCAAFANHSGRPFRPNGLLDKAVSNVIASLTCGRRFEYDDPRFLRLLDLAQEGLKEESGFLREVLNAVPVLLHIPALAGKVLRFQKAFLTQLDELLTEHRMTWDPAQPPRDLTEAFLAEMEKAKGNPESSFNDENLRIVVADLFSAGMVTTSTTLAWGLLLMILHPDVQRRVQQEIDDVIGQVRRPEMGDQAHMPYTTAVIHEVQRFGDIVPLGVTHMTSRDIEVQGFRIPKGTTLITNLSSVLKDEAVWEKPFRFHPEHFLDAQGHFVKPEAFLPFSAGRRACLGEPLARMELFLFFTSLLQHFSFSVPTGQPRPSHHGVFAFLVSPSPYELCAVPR

Turning to `CC(C)CCNc1ccc(C(=O)Nc2nccs2)cc1`, the affinity on Adenosine receptor A2a [1] corresponds to a Ki of 730 nM.

Consider `CC(C)(C)CC(=O)Nc1ccc(CNc2nccs2)cc1`, for which the Ki on Adenosine receptor A2a [1] is > 6000 nM.

For the molecule `O=C(CC1CCCC1)Nc1ccc(C(=O)Nc2nccs2)cc1`, at Adenosine receptor A2a [1], affinity was put at a Ki of 67 nM.

For `Cc1cc(C(=O)Nc2nccs2)ccc1NC(=O)CN(C)C`, the inhibition at Adenosine receptor A2a [2] was determined as 1%.

With `CC(C)(C)CC(=O)Nc1ccc(C(=O)Nc2nccs2)cn1`, the inhibition on Adenosine receptor A2a [2] was determined as 30%.

In the case of `O=C(CC1CCNC1)Nc1ccc(C(=O)Nc2nccs2)cc1` (centres undefined), the Ki on Adenosine receptor A2a [1] was > 2100 nM.

`CCN(CC)CCCCCC(=O)Nc1ccc(C(=O)Nc2nccs2)cc1`: the Ki on Adenosine receptor A2a [1] was 240 nM.

`O=C(CC1CCCN1)Nc1ccc(C(=O)Nc2nccs2)cc1` (centres undefined) came in with a Ki on Adenosine receptor A2a [1] of 6600 nM.

Turning to `CCN(CC)CCCCC(=O)Nc1ccc(C(=O)Nc2nccs2)cc1`, on Adenosine receptor A2a [1], the Ki turned out to be 830 nM.

At Adenosine receptor A2a [1], `CCN(CC)CCC(C)CC(=O)Nc1ccc(C(=O)Nc2nccs2)cc1` (centres undefined) showed a Ki of 110 nM.

`CCN(CC)CCCCCCCC(=O)Nc1ccc(C(=O)Nc2nccs2)cc1` gave a Ki on Adenosine receptor A2a [1] of 130 nM.

`Cc1cc(C(=O)Nc2nccs2)ccc1NC(=O)CC(C)(C)C` yielded an inhibition constant (Ki) at Adenosine receptor A2a [1] of 67 nM.

With `CC(C)(C)CC(=O)Nc1ccc(C(=O)Nc2nccs2)nc1`, the Ki on Adenosine receptor A2a [1] came to 300 nM. Further, the concentration in solution in data set [3] (solubility) was 10 µg/mL (≈ 31.4 µM).

`CC(C)(O)CC(=O)Nc1ccc(C(=O)Nc2nccs2)cc1` had a Ki on Adenosine receptor A2a [1] of 1100 nM.

Turning to `CC(CCN1CCOCC1)CC(=O)Nc1ccc(C(=O)Nc2nccs2)cc1` (centres undefined), on Adenosine receptor A2a [1], the Ki worked out at 110 nM. For the same molecule, the IC50 against Cytochrome P450 1A2 is > 40000 nM; on Cytochrome P450 2C9 it was > 40000 nM; against Cytochrome P450 3A4, > 40000 nM; on Cytochrome P450 2C19 it was > 40000 nM; against Cytochrome P450 2D6 it was 18000 nM. Moreover, in data set [4], the CLint scaled is 10.3 mL/min/kg. Besides, in data set [5], the solubility amounted to 116 µg/mL (≈ 288 µM).

Consider `CC(C)CC(=O)Nc1ccc(C(=O)Nc2nccs2)cc1`, for which the Ki at Adenosine receptor A2a [1] is 59 nM.

For the origin of these results see ChEMBL document CHEMBL3399957, “Synthesis and SAR studies of analogues of 4-(3,3-dimethyl-butyrylamino)-3,5-difluoro-N-thiazol-2-yl-benzamide (Lu AA41063) as adenosine A2A receptor ligands with improved aqueous solubility” (Bioorg Med Chem Lett, 2015).
